Test system: Erysiphe graminis f.sp. tritici
Experiment: Efficacy against Erysiphe graminis f.sp. tritici on wheat (Example B-1)
Assay type: in vivo
Conditions: single active ingredient
From the text: A synergistic effect exists whenever the action of an active ingredient combination is greater than the sum of the actions of the individual components. The action to be expected E for a given active ingredient combination obeys the so-called COLBY formula and can be calculated as follows (COLBY, S.R. “Calculating synergistic and antagonistic responses of herbicide combination”. Weeds, Vol. 15, pages 20-22; 1967):
ppm=milligrams of active ingredient (=a.i.) per litre of spray mixture
X=% action by active ingredient I using p ppm of active ingredient
Y=% action by active ingredient II using q ppm of active ingredient.
According to Colby, the expected (additive) action of active ingredients I+II using p+q ppm of [formula]
If the action actually observed (O) is greater than the expected action (E), then the action of the combination is superadditive, i.e. there is a synergistic effect.
Wheat plants c.v. “Arina”, about 10 days old, are sprayed with aqueous suspensions of the active ingredients or mixtures thereof. One day later, the plants are inoculated by dusting with spores of Erysiphe graminis. The tests may also be carried out with curative applications, i.e. application 1-3 days after artificial inoculation of the plants. The plants are incubated in the greenhouse or in climate chambers at 20° C., 70% relative humidity. 7 to 10 days after inoculation, fungal attack on primary leaves is assessed.
The efficacy of the rest combinations and the single active ingredients in the above tests is determined by comparing the degree of fungal attack with that on untreated, similarly inoculated check plants.

`Cc1cc(C2CC2)nc(Nc2ccccc2)n1` [Cyprodinil, cyprodinil] was tested, and the “% activity observed” value (Table 2, 10 ppm) was 0% and the “% activity observed” value (Table 2, 25 ppm) was 15%.
`N#Cc1c[nH]cc1-c1cccc2c1OC(F)(F)O2` [Fludioxonil, fludioxonil] was tested, and the “% activity observed” value (Table 1, 250 ppm) was 20%.
`CON=C(C(=O)OC)c1ccccc1CON=C(C)c1cccc(C(F)(F)F)c1` [cmpd. V, methyl 2-{2-[4-(3-trifluoromethylphenyl)-3-aza-2-oxa-3-pentenyl]-phenyl}-2-methoxyimino-acetate] was tested, and the inhibition at 0.25 ppm (Blumeria graminis, Table 3, 0.25 ppm, read-out: % activity observed) was 29% and the inhibition at 0.5 ppm (Blumeria graminis, Table 3, 0.5 ppm, read-out: % activity observed) was 54%.

From patent publication US20030065001A1, “Fungicidal combinations comprising quinazolinone” (priority 1997, published 2003)
